Data as given in patent publication US6620844B2, “Method for reducing blood insulin levels by reducing in vivo cathepsin L activity” (NewMillennium Pharmaceutical, Inc., priority 2001, dated 2003).
Non-standard residues stand in square brackets, D forms with d. Residues, ends and D or L forms follow the SMILES beside them. *: point of attachment. Cbz = O=C(OCc1ccccc1)*

Key:
Cathepsin L [1] = target: Cathepsin L (Homo sapiens, UniProt P07711); details: cited from earlier work
Cathepsin B [2] = target: Cathepsin B (Homo sapiens, UniProt P07858); details: cited from earlier work
human preadipocytes = test: Human preadipocyte adipogenesis, oil-red staining; assay type: cell-based; details: for effect on adipogenesis / inhibition of adipogenesis / differentiation: human preadipocytes; for inhibition of adipogenesis / differentiation: 10 μM
Description: FIG. 6. Oil-red staining of human preadipocytes and adipocytes.
(§1) Human preadipocytes were initially cultured in MSCGM medium (BioWhitaker) at 37° C. and 5% CO2 for 7 to 12 days with 3-4 changes of media till complete confluence. Non-induced cells were kept in adipogenesis maintenance media containing 0.01 mg/ml of insulin, 0.05 units/ml of penicillin, 0.05 μg/ml of streptomycin, and 10% fetal bovine serum. To induce adipogenesis, complete confluent cells were cultured in adipogenesis induction medium containing 1 μM dexamethasone, 0.2 mM indomethacin, 0.01 mg/ml insulin, 0.5 mM 3-isobutyl-1-methyl-xanthine, 0.05 units/ml of penicillin, 0.05 μg/ml of streptomycin, and 10% fetal bovine serum in the presence and absence of protease inhibitors for 3 days followed by three days of culture in maintenance media. After three cycles of induction and maintenance, cells were cultured in maintenance media for additional 7 days with two changes of fresh media.
This hypothesis is further confirmed by oil-red staining of CLIK 148 or 195 treated preadipocytes (FIG. 6). In addition, inhibition of adiogenesis by these two inhibitors is dose dependent. Less than 50% of adipogenesis was blocked by 1 μM of such inhibitors. […] In contrast, 1 μM of CLIK 060, 1 or 10 μM of CA 074 had no effect on adipogenesis (data not shown). Therefore, these observations indicate that cathepsin L appears to play a more critical role than cathepsins S and K in adipogenesis by controlling insulin/IR complex turnover.

cathepsin B [3] = target: T1, cathepsin B (Mus musculus, UniProt P10605); test: Cysteine protease active site labeling in mouse peritoneal macrophages: cathepsin B; assay type: cell-based
T1 construct: endogenous in cells; host or cells: thioglycolate-elicited mouse peritoneal macrophages
Description: (§2) FIG. 1. Cysteine protease inhibition profile by synthetic inhibitors in mouse peritoneal macrophages. [^125I]-Z-Tyr-Ala-CHN2-labeled mouse peritoneal macrophages were lysed and separated onto 12% SDS-PAGE to visualize labeled active cathepsins. Doses and inhibitors used were all indicated.
(§3) Mouse peritoneal macrophages were generated by injecting mice with thioglycolate as described in Shi et al. (2000) J. Exp. Med. 191:[…]. After 3-4 days of incubation, peritoneal microphages were washed out using Tris-EDTA buffers containing 6 mM EDTA (pH 8.0). Cells were then seeded onto 24-well plates in DMEM with 10% FBS till complete spread. After cells were attached to the plates, different doses of inhibitors were added. After 2-3 hours of incubation, cells were labeled with [^125I]-Z-Tyr-Ala-CHN2 overnight at 37° C. to detect intracellular active cysteine proteases. Cells were lysed into 1× reducing protein sample buffer and separated onto 12% SDS-PAGE.
(§4) First, the synthetic small molecule compounds were tested for their selectivity toward different forms of cathepsin. Mouse peritoneal macrophages were cultured in the presence of selective inhibitors and cysteine protease active site labeling probe [^125I]-Z-Tyr-Ala-CHN2 (Sukhova et al., supra). […] In contrast, other inhibitors used had no effect on cathepsin B activity. […] Therefore, these inhibitors can be utilized to test if the aforementioned cathepsins play roles in the breakdown of insulin receptor (IR) or IR turnover.

[4] = tested on: insulin receptor β subunit; test: Insulin receptor turnover in human preadipocytes, Western blot; assay type: cell-based; details: for IR turnover: human preadipocytes induced to adipocytes
Description: FIG. 2. […] Human preadipocytes were incubated with and without inhibitors indicated at different doses, lysed, separated onto 7% SDS-PAGE, and probed with goat anti-human insulin receptor β-subunit polyclonal antibodies. Both mature β subunit and its precursor were indicated.
as §1
(§5) After differentiation, cells were collected, and lysed into 1×RIPA buffer. Protein concentrations were determined using Bio-Rad Dc protein assay system according to the manufacturer (Bio-Rad, Hercules, Calif.). Equal amount of proteins were separated on 7% SDS-PAGE for detecting IR and IGF-1R, 12% SDS-PAGE for detecting cathepsins S, K, and L antigens. Both IR and IGF-1R primary polyclonal antibodies were raised from goat and all cathepsin antibodies were polyclonal antibodies raised from rabbit. The corresponding HRP-conjugated secondary antibodies were used for detections.
To test which cathepsin is involved in the IR turnover, human preadipocytes (BioWhittaker, Walkersville, Md.) were induced to become adipocytes in the presence and absence of inhibitors. Differentiated adipocytes expressed more IR than controls as previously reported. Pederson et al. (2000) Biochem. Biophys. Res. Commun. 276:162-168. Cathepsin B inhibitor (CA 074, 10 μM) and catepsin S inhibitor (CLIK 060, 2 μM) had no effect on either IR turnover or differentiation (FIGS. 2). […] The same is true when the blot was tested with insulin like growth factor I receptor (IGF-IR) antibodies (FIG. 3).

cathepsin K [5] = target: T2, cathepsin K (Mus musculus, UniProt P55097); test: Cysteine protease active site labeling in mouse peritoneal macrophages: cathepsin K; assay type: cell-based
T2 construct: endogenous in cells; host or cells: thioglycolate-elicited mouse peritoneal macrophages
T2 sequence (P55097 115-329): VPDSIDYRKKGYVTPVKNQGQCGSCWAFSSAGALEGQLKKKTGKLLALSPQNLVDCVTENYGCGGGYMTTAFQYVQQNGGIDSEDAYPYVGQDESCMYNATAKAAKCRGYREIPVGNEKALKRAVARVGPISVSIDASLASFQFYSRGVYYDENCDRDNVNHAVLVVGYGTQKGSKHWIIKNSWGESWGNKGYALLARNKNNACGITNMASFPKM
Description: as §2, §3, §4

cathepsin L [6] = target: T3, cathepsin L (Mus musculus, UniProt P06797); test: Cysteine protease active site labeling in mouse peritoneal macrophages: cathepsin L; assay type: cell-based
T3 construct: endogenous in cells; host or cells: thioglycolate-elicited mouse peritoneal macrophages
Description: as §2, §3, §4

cathepsin S [7] = target: cathepsin S (Mus musculus, UniProt O70370); test: Cysteine protease active site labeling in mouse peritoneal macrophages: cathepsin S; assay type: cell-based; design: endogenous in cells; host or cells: thioglycolate-elicited mouse peritoneal macrophages
Description: as §2, §3
First, the synthetic small molecule compounds were tested for their selectivity toward different forms of cathepsin. Mouse peritoneal macrophages were cultured in the presence of selective inhibitors and cysteine protease active site labeling probe [^125I]-Z-Tyr-Ala-CHN2 (Sukhova et al., supra). […] In contrast, other inhibitors used had no effect on cathepsin B activity. […]

Cathepsin S [8] = target: Cathepsin S (Homo sapiens, UniProt P25774); details: cited from earlier work
Cathepsin K [9] = target: T4, Cathepsin K (Homo sapiens, UniProt P43235); details: cited from earlier work
T4 sequence (P43235 115-329): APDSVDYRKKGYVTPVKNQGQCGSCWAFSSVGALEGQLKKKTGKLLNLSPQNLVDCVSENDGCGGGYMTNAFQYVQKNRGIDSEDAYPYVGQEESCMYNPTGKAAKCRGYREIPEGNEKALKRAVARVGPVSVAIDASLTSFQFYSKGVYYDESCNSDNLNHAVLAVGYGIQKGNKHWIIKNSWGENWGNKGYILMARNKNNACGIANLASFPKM

[10] = tested on: peroxisome proliferator-activated receptor-γ (PPAR-γ); test: PPAR-γ levels in human preadipocytes, Western blot; assay type: cell-based; details: human preadipocytes differentiated with inhibitor, FIG. 5
Description: FIG. 5. Inhibition of cathepsin L blocked the expression of PPAR-γ. Human preadipocytes were used and Western blot analysis was performed as in FIG. 4 instead of using mouse anti-human PPAR-γ monoclonal antibodies as the primary antibodies.
as §1
(§6) To evaluate the cell differentiation levels affected by aforementioned inhibitors, the levels of transcription factors CCAAT/enhancer-binding protein-α (C/EBP-α) as well as peroxisome proliferator-activated receptor-γ (PPAR-γ) from cells treated with and without inhibitors were measured. Both C/EBP-α and PPAR-γ are important adipocyte determination factors. Wu et al. (1999) Mol. Cell. 3:151-158; Tanaka et al. (1997) EMBO J. 16:7432-7443; and Tontonoz et al. (1994) Cell 79:1147-1156.

[11] = tested on: insulin like growth factor I receptor (IGF-IR); test: IGF-IR levels in human preadipocytes, Western blot; assay type: cell-based
Description: FIG. 3. […] Cells were treated as in FIG. 2. Western blot analysis was performed using goat anti-human IGF-1R polyclonal antibodies.
as §1, §5
To test which cathepsin is involved in the IR turnover, human preadipocytes (BioWhittaker, Walkersville, Md.) were induced to become adipocytes in the presence and absence of inhibitors. Differentiated adipocytes expressed more IR than controls as previously reported. Pederson et al. (2000) Biochem. Biophys. Res. Commun. 276:162-168. Cathepsin B inhibitor (CA 074, 10 μM) and catepsin S inhibitor (CLIK 060, 2 μM) had no effect on either IR turnover or differentiation (FIGS. 2). […]

[12] = tested on: CCAAT/enhancer-binding protein-α (C/EBP-α); test: C/EBP-α levels in human preadipocytes, Western blot; assay type: cell-based; details: human preadipocytes differentiated with inhibitor, FIG. 4
Description: FIG. 4. Inhibition of cathepsin L blocked the expression of CCAAT/enhancer-binding protein. Human preadipocytes were differentiated as in FIG. 2. A 10% gel was used to perform Western blot analysis using goat anti-human C/EBP-α polyclonal antibodies and the blot was detected using the corresponding HRP-conjugated secondary antibodies.
as §1, §6

Sequence of Cathepsin L (P07711 114-333, species assumed): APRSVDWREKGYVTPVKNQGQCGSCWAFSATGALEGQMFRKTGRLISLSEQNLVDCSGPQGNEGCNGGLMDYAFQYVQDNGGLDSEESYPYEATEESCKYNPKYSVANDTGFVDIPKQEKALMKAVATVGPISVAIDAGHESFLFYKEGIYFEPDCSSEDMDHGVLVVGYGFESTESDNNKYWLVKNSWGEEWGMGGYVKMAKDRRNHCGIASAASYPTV
T3 sequence (P06797 114-334): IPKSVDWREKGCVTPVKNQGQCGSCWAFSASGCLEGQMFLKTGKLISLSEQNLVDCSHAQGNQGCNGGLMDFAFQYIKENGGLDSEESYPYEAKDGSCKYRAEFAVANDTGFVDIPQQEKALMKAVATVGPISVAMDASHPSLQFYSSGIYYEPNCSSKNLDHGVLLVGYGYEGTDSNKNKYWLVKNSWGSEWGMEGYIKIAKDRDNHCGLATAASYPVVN
Sequence of Cathepsin S (P25774 115-331, species assumed): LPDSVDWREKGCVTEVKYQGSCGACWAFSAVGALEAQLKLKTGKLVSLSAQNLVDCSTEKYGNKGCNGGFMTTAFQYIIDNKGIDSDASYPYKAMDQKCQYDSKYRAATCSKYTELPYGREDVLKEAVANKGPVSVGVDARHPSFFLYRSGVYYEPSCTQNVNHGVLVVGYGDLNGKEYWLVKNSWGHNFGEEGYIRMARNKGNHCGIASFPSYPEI
T1 sequence (P10605 80-333 limits assumed): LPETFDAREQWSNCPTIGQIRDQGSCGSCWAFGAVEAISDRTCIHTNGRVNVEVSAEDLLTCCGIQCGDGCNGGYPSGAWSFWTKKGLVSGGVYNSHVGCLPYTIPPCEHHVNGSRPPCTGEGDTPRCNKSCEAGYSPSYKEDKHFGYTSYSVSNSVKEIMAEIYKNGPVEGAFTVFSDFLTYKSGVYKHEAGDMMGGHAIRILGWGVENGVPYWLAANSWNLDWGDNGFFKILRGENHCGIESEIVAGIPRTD

O=C[C@H](Cc1c[nH]c2ccccc12)NC(=O)C(Cc1ccccc1)Cc1ccccc1
IC50 (Cathepsin L [1]): < 32 nM
IC50 (Cathepsin B [2]): > 1000 nM

CCCNC(=O)[C@H]1O[C@@H]1C(=O)N[C@H](C(=O)N1CCC[C@H]1C(=O)O)[C@@H](C)CC [CA 074]
effect on adipogenesis (human preadipocytes; 1 μM): no effect
inhibition of adipogenesis / differentiation (human preadipocytes): no effect
effect on adipogenesis (human preadipocytes; 10-20 μM): no effect
cathepsin B activity (active site labeling) (cathepsin B [3]; 2 μM): completely blocked
IR turnover ([4]; 10 μM): no effect
cathepsin K activity (active site labeling) (cathepsin K [5]; 2 μM): remain intact
cathepsin L activity (active site labeling) (cathepsin L [6]; 2 μM, mouse peritoneal macrophages): remain intact
cathepsin S activity (active site labeling) (cathepsin S [7]; 2 μM): remain intact

CN(C)C(=O)[C@H](Cc1ccccc1)NC(=O)C1OC1C(=O)NC(CCCCN)C(=O)Nc1ccccc1.Cl (stereo in doubt) [CLIK 060, N-{L-3-trans[(1-phenylcarbamoyl-5-amino)pentylcarbamoyl]oxirane-2-carbonyl}-L-phenylalaninoldimethylamide hydrochloride]
effect on adipogenesis (human preadipocytes; 1 μM): no effect
differentiation of human preadipocytes (human preadipocytes; 2 μM): no effect
effect on adipogenesis (human preadipocytes; 10-15 μM (higher concentrations)): adipogenesis inhibition
IR turnover ([4]; 2 μM): no effect
IR accumulation ([4]; 10-15 μM, human preadipocytes): IR accumulation
cathepsin L activity (active site labeling) (cathepsin L [6]; 2-10 μM, mouse peritoneal macrophages): affected at some level
cathepsin L activity (active site labeling) (cathepsin L [6]; 10-15 μM, FIG. 1): blocked
cathepsin S activity (active site labeling) (cathepsin S [7]; 2-10 μM): significantly inhibited

CC(C)C[C@H](NC(=O)N1CCOCC1)C(=O)N[C@H](/C=C/S(=O)(=O)c1ccccc1)CCc1ccccc1
Ki (Cathepsin S [8]): 5 nM

N#CN1CCC(NC(=O)Cc2ccccc2)C1 (stereo not shown)
IC50 (Cathepsin L [1]): 54 nM
IC50 (Cathepsin B [2]): 200 nM
IC50 (Cathepsin K [9]): 40 nM

CN(C)C(=O)[C@H](Cc1ccccc1)NC(=O)[C@H]1O[C@@H]1C(=O)N[C@@H](Cc1ccccc1)C(=O)N(C)C (relative stereo) [CLIK 195, L-(+)-(2S, 3S)-Bis-(Na-amino-L-phenylalaninedimethylamide)-trans-epoxysuccinamide]
inhibition of adipogenesis / differentiation (human preadipocytes): complete inhibition
inhibition of adipogenesis / differentiation (human preadipocytes; listed as 195): completely blocked
cathepsin B activity (active site labeling) (cathepsin B [3]; 10 μM): not
levels of 95 kDa IR β subunit and its precursor ([4]; 10 μM, human preadipocytes): increased levels
accumulation of 50 kDa PPAR-γ [10]: blocking the accumulation
levels of IGF-IR β subunit and its precursor (the same as for IR) ([11]; 10 μM): increased levels
accumulation of 50 kDa C/EBP-α [12]: blocking the accumulation
cathepsin K activity (active site labeling) (cathepsin K [5]; 10 μM): not
cathepsin L activity (active site labeling) (cathepsin L [6]; 10 μM, mouse peritoneal macrophages): completely inhibited

CC(C)CC(NC(=O)[C@@H](Cc1ccccc1)NC(=O)OCc1ccccc1)C(=O)C=O (stereo partly shown)
Ki (Cathepsin S [8]): 0.185 nM
Ki (Cathepsin B [2]): 0.76 nM

O=C[C@@H](Cc1ccc(O)cc1)NC(=O)[C@H](Cc1ccccc1)NC(=O)OCc1ccccc1 (Cbz-Phe-[dY]-aldehyde)
Cathepsin L selectivity, in words (Cathepsin L [1]): Cathepsin L. Selective (Woo et al. Bioorg. Med. Chem. 5, 1501, 1995)

O=C(N[C@@H](Cc1ccc2ccccc2c1)C(=O)N[C@H]1CCCN(S(=O)(=O)c2ccccn2)CC1=O)c1cccc2cccnc12
Ki (Cathepsin K [9]): 420 to 503 nM

CCOC(=O)[C@H]1O[C@@H]1C(=O)N[C@@H](CC(C)C)C(=O)NCCC(C)C [E64d]
levels of 95 kDa IR β subunit and its precursor ([4]; 20 μM, human preadipocytes): increased levels
accumulation of 50 kDa PPAR-γ [10]: blocking the accumulation
levels of IGF-IR β subunit and its precursor (the same as for IR) ([11]; 20 μM): increased levels
accumulation of 50 kDa C/EBP-α [12]: blocking the accumulation

N#CN1CC(NC(=O)CC2CCCCC2)C1
IC50 (Cathepsin L [1]): 6 nM
IC50 (Cathepsin B [2]): 150 nM
IC50 (Cathepsin K [9]): 5 nM

CC(C)C[C@H](NC(=O)[C@H](CC(C)C)NC(=O)OCc1ccccc1)C(=O)COCc1ccc(-c2ccccc2)cc1
Ki (Cathepsin L [1]): 63 nM
Ki (Cathepsin B [2]): 1310 nM
Ki (Cathepsin K [9]): 22 nM

O=C(N[C@@H](Cc1ccc2ccccc2c1)C(=O)N[C@H]1CCCN(S(=O)(=O)c2ccccn2)CC1=O)c1cccc2ccccc12
Ki (Cathepsin K [9]): 420 to 503 nM

CC(C)CC(NC(=O)[C@H](CC(C)C)NC(=O)OCc1ccccc1)C(=O)COCc1ccc(-c2ccccc2)cc1 (stereo partly shown)
Ki (Cathepsin L [1]): 63 nM
Ki (Cathepsin B [2]): 1310 nM
Ki (Cathepsin K [9]): 22 nM
